In ChEMBL document CHEMBL2074387, “Expression of the bile salt export pump is maintained after chronic cholestasis in the rat” (Gastroenterology, 2000):

Columns and labels:
[1] = molecular target: T1, Hepatic sodium/bile acid cotransporter (Rattus norvegicus, UniProt P26435); experiment: TP_TRANSPORTER: Northern blot in vivo SD rat, liver; assay type: functional, organism-based, Sprague-Dawley
T1 sequence (P26435 whole entry): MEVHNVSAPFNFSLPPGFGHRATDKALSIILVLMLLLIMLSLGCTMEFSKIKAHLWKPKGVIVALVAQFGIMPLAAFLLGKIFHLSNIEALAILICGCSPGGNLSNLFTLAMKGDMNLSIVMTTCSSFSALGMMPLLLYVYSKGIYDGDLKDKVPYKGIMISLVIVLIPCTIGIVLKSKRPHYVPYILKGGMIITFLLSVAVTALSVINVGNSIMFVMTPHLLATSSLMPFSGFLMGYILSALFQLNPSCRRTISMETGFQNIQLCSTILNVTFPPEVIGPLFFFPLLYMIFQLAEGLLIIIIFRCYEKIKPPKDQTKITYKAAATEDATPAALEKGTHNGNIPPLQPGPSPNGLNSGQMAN

Bile salt export pump = molecular target: T2, Bile salt export pump (Rattus norvegicus, UniProt O70127); experiment: TP_TRANSPORTER: Western in vivo SD rat, liver; assay type: functional, organism-based, Sprague-Dawley
T2 sequence (O70127 whole entry): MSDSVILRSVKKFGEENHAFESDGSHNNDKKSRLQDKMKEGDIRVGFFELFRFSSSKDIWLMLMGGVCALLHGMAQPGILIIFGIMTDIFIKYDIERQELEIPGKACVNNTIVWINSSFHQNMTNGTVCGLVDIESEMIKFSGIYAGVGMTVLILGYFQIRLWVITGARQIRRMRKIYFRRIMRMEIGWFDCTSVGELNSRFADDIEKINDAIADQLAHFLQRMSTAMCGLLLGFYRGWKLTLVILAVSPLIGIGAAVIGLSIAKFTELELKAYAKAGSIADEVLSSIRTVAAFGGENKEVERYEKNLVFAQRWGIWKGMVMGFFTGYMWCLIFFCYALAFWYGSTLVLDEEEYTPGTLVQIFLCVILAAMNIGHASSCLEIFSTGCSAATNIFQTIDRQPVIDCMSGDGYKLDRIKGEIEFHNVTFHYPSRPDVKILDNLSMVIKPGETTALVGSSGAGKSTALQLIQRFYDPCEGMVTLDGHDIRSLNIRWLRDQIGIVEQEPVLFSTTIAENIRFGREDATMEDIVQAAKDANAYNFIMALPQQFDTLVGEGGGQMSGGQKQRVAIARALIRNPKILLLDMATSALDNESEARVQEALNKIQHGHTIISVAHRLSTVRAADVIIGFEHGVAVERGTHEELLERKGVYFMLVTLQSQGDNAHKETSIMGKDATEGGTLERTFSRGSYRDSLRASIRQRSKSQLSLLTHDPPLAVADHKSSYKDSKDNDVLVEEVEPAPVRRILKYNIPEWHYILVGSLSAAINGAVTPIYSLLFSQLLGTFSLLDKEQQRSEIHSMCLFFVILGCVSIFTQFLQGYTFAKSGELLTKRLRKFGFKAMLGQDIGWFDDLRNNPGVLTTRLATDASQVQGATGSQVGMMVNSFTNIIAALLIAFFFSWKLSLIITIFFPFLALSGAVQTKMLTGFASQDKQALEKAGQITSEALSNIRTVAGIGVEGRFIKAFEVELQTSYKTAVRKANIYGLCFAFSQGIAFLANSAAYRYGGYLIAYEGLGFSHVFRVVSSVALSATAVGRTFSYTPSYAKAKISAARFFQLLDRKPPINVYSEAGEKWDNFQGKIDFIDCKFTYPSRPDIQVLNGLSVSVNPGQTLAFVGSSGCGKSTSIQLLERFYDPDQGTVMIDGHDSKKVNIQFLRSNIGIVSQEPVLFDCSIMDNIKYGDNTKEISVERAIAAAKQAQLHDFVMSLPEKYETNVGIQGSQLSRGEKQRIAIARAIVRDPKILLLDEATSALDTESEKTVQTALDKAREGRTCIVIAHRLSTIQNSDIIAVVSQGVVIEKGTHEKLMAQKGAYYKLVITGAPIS

- Activity [1]: inducer [Decrease]
- Activity (Bile salt export pump): inducer [Decrease]
Compound: C#C[C@]1(O)CC[C@H]2[C@@H]3CCc4cc(O)ccc4[C@H]3CC[C@@]21C [ETHINYL ESTRADIOL]
